Data reported in PubChem BioAssay (NCI).
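Interpolation was linear, between the two tested concentrations surrounding the appropriate level; five concentrations were tested over 48 hours in 96-well plates. GI50 is the concentration that inhibits growth by half. TGI marks complete inhibition of growth.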

Experiments:
Assay in all cases: growth of human tumour cells (NCI), 48 h
HCT-15 colon = tested on: HCT-15 colon
SK-MEL-28 melanoma = tested on: SK-MEL-28 melanoma
UACC-62 melanoma = tested on: UACC-62 melanoma
HL-60(TB) leukemia = tested on: HL-60(TB) leukemia
MOLT-4 leukemia = tested on: MOLT-4 leukemia
CAKI-1 renal = tested on: CAKI-1 renal
UACC-257 melanoma = tested on: UACC-257 melanoma
T-47D breast = tested on: T-47D breast
RXF 393 renal = tested on: RXF 393 renal
A498 renal = tested on: A498 renal
SK-MEL-5 melanoma = tested on: SK-MEL-5 melanoma
RPMI-8226 leukemia = tested on: RPMI-8226 leukemia
MALME-3M melanoma = tested on: MALME-3M melanoma
SR leukemia = tested on: SR leukemia
HT29 colon = tested on: HT29 colon
K-562 leukemia = tested on: K-562 leukemia
KM12 colon = tested on: KM12 colon
DU-145 prostate = tested on: DU-145 prostate
OVCAR-3 ovarian = tested on: OVCAR-3 ovarian
SW-620 colon = tested on: SW-620 colon
SNB-75 CNS = tested on: SNB-75 CNS
SF-268 CNS = tested on: SF-268 CNS
OVCAR-4 ovarian = tested on: OVCAR-4 ovarian
NCI-H460 lung = tested on: NCI-H460 lung
U251 CNS = tested on: U251 CNS
LOX IMVI melanoma = tested on: LOX IMVI melanoma
SNB-19 CNS = tested on: SNB-19 CNS
MDA-MB-231 breast = tested on: MDA-MB-231 breast
SF-295 CNS = tested on: SF-295 CNS
M14 melanoma = tested on: M14 melanoma
SF-539 CNS = tested on: SF-539 CNS
786-0 renal = tested on: 786-0 renal
OVCAR-8 ovarian = tested on: OVCAR-8 ovarian
CCRF-CEM leukemia = tested on: CCRF-CEM leukemia
MDA-MB-435 = tested on: MDA-MB-435
NCI-H522 lung = tested on: NCI-H522 lung
NCI/ADR-RES ovarian = tested on: NCI/ADR-RES ovarian
PC-3 prostate = tested on: PC-3 prostate
BT-549 breast = tested on: BT-549 breast
OVCAR-5 ovarian = tested on: OVCAR-5 ovarian
TK-10 renal = tested on: TK-10 renal
SN12C renal = tested on: SN12C renal
HCT-116 colon = tested on: HCT-116 colon
NCI-H226 lung = tested on: NCI-H226 lung
HCC-2998 colon = tested on: HCC-2998 colon
SK-MEL-2 melanoma = tested on: SK-MEL-2 melanoma
HS 578T breast = tested on: HS 578T breast
IGROV1 ovarian = tested on: IGROV1 ovarian
NCI-H23 lung = tested on: NCI-H23 lung
ACHN renal = tested on: ACHN renal
A549 NSCLC = tested on: A549 NSCLC
COLO 205 colon = tested on: COLO 205 colon
MCF7 breast = tested on: MCF7 breast
UO-31 renal = tested on: UO-31 renal
SK-OV-3 ovarian = tested on: SK-OV-3 ovarian
HOP-92 NSCLC = tested on: HOP-92 NSCLC
HOP-62 NSCLC = tested on: HOP-62 NSCLC

Work on `FC(F)(F)c1cc(-c2ncn(/C=C\c3nnco3)n2)cc(C(F)(F)F)c1` yielded a GI50 (HCT-15 colon) of 133 nM, a TGI (HCT-15 colon) of over 33400 nM and a GI50 (SK-MEL-28 melanoma) of 125 nM. It also gave a TGI (SK-MEL-28 melanoma) of 49300 nM, a GI50 (UACC-62 melanoma) of 189 nM and a TGI (UACC-62 melanoma) of 6760 nM. For the same molecule, the GI50 (HL-60(TB) leukemia) was 48.5 nM, the TGI (HL-60(TB) leukemia) was 13400 nM and the GI50 (MOLT-4 leukemia) was 28.4 nM. The TGI (MOLT-4 leukemia) was 938 nM, the GI50 (CAKI-1 renal) was 49.7 nM and the TGI (CAKI-1 renal) was over 38900 nM. The GI50 (UACC-257 melanoma) was 67.3 nM, the TGI (UACC-257 melanoma) was over 66400 nM and the GI50 (T-47D breast) was 56.7 nM. It also gave a TGI (T-47D breast) of over 41500 nM, a GI50 (RXF 393 renal) of 21.6 nM and a TGI (RXF 393 renal) of 110 nM. It also gave a GI50 (A498 renal) of under 12.8 nM, a TGI (A498 renal) of 63.9 nM and a GI50 (SK-MEL-5 melanoma) of 165 nM. It also gave a TGI (SK-MEL-5 melanoma) of 2740 nM, a GI50 (RPMI-8226 leukemia) of 33.6 nM and a TGI (RPMI-8226 leukemia) of 15600 nM. The GI50 (MALME-3M melanoma) was 102 nM, the TGI (MALME-3M melanoma) was 734 nM and the GI50 (SR leukemia) was 24.6 nM. For the same molecule, the TGI (SR leukemia) was 12600 nM, the GI50 (HT29 colon) was 120 nM and the TGI (HT29 colon) was 48200 nM. It also gave a GI50 (K-562 leukemia) of 60 nM, a TGI (K-562 leukemia) of over 42200 nM and a GI50 (KM12 colon) of 346 nM. For the same molecule, the TGI (KM12 colon) was over 32700 nM, the GI50 (DU-145 prostate) was 315 nM and the TGI (DU-145 prostate) was 22000 nM. It also gave a GI50 (OVCAR-3 ovarian) of 60 nM, a TGI (OVCAR-3 ovarian) of 1420 nM and a GI50 (SW-620 colon) of 53.6 nM. For the same molecule, the TGI (SW-620 colon) was over 43100 nM, the GI50 (SNB-75 CNS) was 106 nM and the TGI (SNB-75 CNS) was 3650 nM. It also gave a GI50 (SF-268 CNS) of 46.2 nM, a TGI (SF-268 CNS) of 10100 nM and a GI50 (OVCAR-4 ovarian) of 44.2 nM. The GI50 (NCI-H460 lung) was 38.4 nM, the GI50 (U251 CNS) was 40.2 nM and the TGI (U251 CNS) was 15600 nM. It also gave a GI50 (LOX IMVI melanoma) of 90.2 nM, a TGI (LOX IMVI melanoma) of 3820 nM and a GI50 (SNB-19 CNS) of 126 nM. It also gave a TGI (SNB-19 CNS) of over 100000 nM, a GI50 (MDA-MB-231 breast) of 132 nM and a TGI (MDA-MB-231 breast) of over 73900 nM. It also gave a GI50 (SF-295 CNS) of 63.4 nM, a TGI (SF-295 CNS) of over 43300 nM and a GI50 (M14 melanoma) of 372 nM. The TGI (M14 melanoma) was over 34600 nM, the GI50 (SF-539 CNS) was 19.7 nM and the TGI (SF-539 CNS) was 74.4 nM. It also gave a GI50 (786-0 renal) of 86.9 nM, a TGI (786-0 renal) of over 32300 nM and a GI50 (OVCAR-8 ovarian) of 58.9 nM. The TGI (OVCAR-8 ovarian) was over 47700 nM, the GI50 (CCRF-CEM leukemia) was 107 nM and the TGI (CCRF-CEM leukemia) was over 100000 nM. It also gave a GI50 (MDA-MB-435) of 58.1 nM, a TGI (MDA-MB-435) of 1510 nM and a GI50 (NCI-H522 lung) of 38.1 nM. It also gave a TGI (NCI-H522 lung) of 445 nM, a GI50 (NCI/ADR-RES ovarian) of 304 nM and a TGI (NCI/ADR-RES ovarian) of over 63500 nM. It also gave a GI50 (PC-3 prostate) of 93 nM, a TGI (PC-3 prostate) of over 36900 nM and a GI50 (BT-549 breast) of 71.9 nM. The TGI (BT-549 breast) was 2440 nM, the GI50 (OVCAR-5 ovarian) was 267 nM and the TGI (OVCAR-5 ovarian) was over 63300 nM. The GI50 (TK-10 renal) was 80.3 nM, the TGI (TK-10 renal) was 12500 nM and the GI50 (SN12C renal) was 417 nM. It also gave a TGI (SN12C renal) of over 100000 nM, a GI50 (HCT-116 colon) of 62.1 nM and a TGI (HCT-116 colon) of over 41900 nM. It also gave a GI50 (NCI-H226 lung) of 38.3 nM, a TGI (NCI-H226 lung) of 23600 nM and a GI50 (HCC-2998 colon) of 317 nM. For the same molecule, the TGI (HCC-2998 colon) was 11100 nM, the GI50 (SK-MEL-2 melanoma) was 31 nM and the TGI (SK-MEL-2 melanoma) was 251 nM. The GI50 (HS 578T breast) was 195 nM, the TGI (HS 578T breast) was 8280 nM and the GI50 (IGROV1 ovarian) was 676 nM. The TGI (IGROV1 ovarian) was over 100000 nM, the GI50 (NCI-H23 lung) was 146 nM and the TGI (NCI-H23 lung) was over 41400 nM. The GI50 (ACHN renal) was 163 nM, the TGI (ACHN renal) was over 96200 nM and the GI50 (A549 NSCLC) was 58.6 nM. It also gave a TGI (A549 NSCLC) of over 42300 nM, a GI50 (COLO 205 colon) of 55 nM and a TGI (COLO 205 colon) of 14000 nM. The GI50 (MCF7 breast) was 41.4 nM, the TGI (MCF7 breast) was 2940 nM and the GI50 (UO-31 renal) was 151 nM. For the same molecule, the TGI (UO-31 renal) was over 100000 nM, the GI50 (SK-OV-3 ovarian) was 223 nM and the TGI (SK-OV-3 ovarian) was over 67300 nM. For the same molecule, the GI50 (HOP-92 NSCLC) was 39.1 nM, the TGI (HOP-92 NSCLC) was 4870 nM and the GI50 (HOP-62 NSCLC) was 282 nM. The TGI (HOP-62 NSCLC) was 28300 nM.
